Assay: molar heat capacity at constant pressure
Settings: 101.33 kPa

CCCO [propan-1-ol]
Settings	molar heat capacity at constant pressure [J/K/mol]
5.01 K, Crystal	0.17
5.41 K, Crystal	0.22
6.14 K, Crystal	0.29
6.36 K, Crystal	0.35
7.33 K, Crystal	0.52
7.72 K, Crystal	0.61
8.72 K, Crystal	0.9
8.94 K, Crystal	0.94
10.13 K, Crystal	1.44
10.33 K, Crystal	1.49
11.74 K, Crystal	2.19
11.83 K, Crystal	2.23
13.48 K, Crystal	3.15
13.5 K, Crystal	3.19
15.36 K, Crystal	4.38
15.38 K, Crystal	4.4
17.37 K, Crystal	5.81
17.42 K, Crystal	5.83
19.52 K, Crystal	7.46
19.6 K, Crystal	7.53
21.78 K, Crystal	9.32
21.9 K, Crystal	9.44
24.15 K, Crystal	11.43
24.29 K, Crystal	11.57
26.63 K, Crystal	13.58
26.79 K, Crystal	13.71
29.24 K, Crystal	15.59
29.43 K, Crystal	15.75
32.1 K, Crystal	18.09
34.44 K, Crystal	20.16
36.72 K, Crystal	21.88
39.11 K, Crystal	23.5
41.56 K, Crystal	25.36
44.03 K, Crystal	27.19
46.52 K, Crystal	28.98
49.05 K, Crystal	30.75
51.61 K, Crystal	32.44
54.2 K, Crystal	34.01
56.81 K, Crystal	35.59
59.46 K, Crystal	37.12
62.13 K, Crystal	38.64
64.82 K, Crystal	40.12
67.54 K, Crystal	41.54
70.28 K, Crystal	42.95
73.03 K, Crystal	44.31
75.8 K, Crystal	45.65
78.58 K, Crystal	46.95
81.38 K, Crystal	48.22
84.17 K, Crystal	49.46
86.9 K, Crystal	50.65
89.55 K, Crystal	51.79
92.15 K, Crystal	52.87
94.68 K, Crystal	53.91
97.15 K, Crystal	54.9
98.26 K, Crystal	55.24
99.58 K, Crystal	55.88
101.41 K, Crystal	56.44
104.32 K, Crystal	57.81
107.19 K, Crystal	59.01
110.07 K, Crystal	60.14
112.95 K, Crystal	61.2
115.84 K, Crystal	62.28
118.73 K, Crystal	63.39
121.63 K, Crystal	64.43
124.53 K, Crystal	65.69
127.43 K, Crystal	66.87
130.34 K, Crystal	68.07
133.25 K, Crystal	69.29
136.16 K, Crystal	70.53
139.06 K, Crystal	71.9
141.97 K, Crystal	73.6
144.84 K, Crystal	79.58
153 K, Liquid	106.26
155.75 K, Liquid	106.33
158.49 K, Liquid	106.55
161.22 K, Liquid	106.79
163.93 K, Liquid	107.01
166.64 K, Liquid	107.32
169.34 K, Liquid	107.61
172.03 K, Liquid	107.88
174.71 K, Liquid	108.22
177.37 K, Liquid	108.49
180.03 K, Liquid	108.81
182.68 K, Liquid	109.05
185.32 K, Liquid	109.37
187.95 K, Liquid	109.64
190.57 K, Liquid	109.94
193.19 K, Liquid	110.41
195.79 K, Liquid	110.64
198.38 K, Liquid	110.93
200.97 K, Liquid	111.4
203.35 K, Liquid	111.76
205.56 K, Liquid	112.13
208.15 K, Liquid	112.54
211.11 K, Liquid	113.05
214.08 K, Liquid	113.58
217.04 K, Liquid	114.16
219.99 K, Liquid	114.78
222.92 K, Liquid	115.39
225.84 K, Liquid	116.05
228.74 K, Liquid	116.74
231.64 K, Liquid	117.43
234.52 K, Liquid	118.2
237.38 K, Liquid	118.92
240.23 K, Liquid	119.7
243.07 K, Liquid	120.56
245.89 K, Liquid	121.39
248.7 K, Liquid	122.27
251.5 K, Liquid	123.2
254.28 K, Liquid	123.87
257.05 K, Liquid	124.8
259.81 K, Liquid	125.83
262.55 K, Liquid	126.88
265.28 K, Liquid	127.98
267.99 K, Liquid	129.08
270.68 K, Liquid	130.22
273.36 K, Liquid	131.39
276.02 K, Liquid	132.62
278.67 K, Liquid	133.86
281.3 K, Liquid	135.13
283.91 K, Liquid	136.42
286.51 K, Liquid	137.76
289.09 K, Liquid	139.17
291.66 K, Liquid	140.59
294.2 K, Liquid	141.98
296.74 K, Liquid	143.51
299.25 K, Liquid	144.96
301.34 K, Liquid	146.08
303.15 K, Liquid	147.29
305.04 K, Liquid	148.45
306.99 K, Liquid	149.78
308.94 K, Liquid	151.07
310.9 K, Liquid	152.24
312.85 K, Liquid	153.55
314.81 K, Liquid	155.12
316.76 K, Liquid	156.37
318.71 K, Liquid	157.72
320.67 K, Liquid	159.16
322.62 K, Liquid	160.63
324.58 K, Liquid	162.08
326.53 K, Liquid	163.47
328.49 K, Liquid	165.03
330.44 K, Liquid	166.52
332.4 K, Liquid	168.01
334.35 K, Liquid	169.52
336.31 K, Liquid	171.04
338.26 K, Liquid	172.66
340.22 K, Liquid	174.2
342.17 K, Liquid	175.61
344.13 K, Liquid	177.2
346.1 K, Liquid	178.27
348.07 K, Liquid	180.29
350.04 K, Liquid	181.83
